Test results: patent US10429384B2, “Compositions, kits, and methods for identification, assessment, prevention, and therapy of metabolic disorders” (Dana-Farber Cancer Institute, Inc., priority 2010, dated 2019)
Entries after “also recorded” stand apart in the source; their conditions may differ.

What was measured:
[1] = biological target: T1, wild type PPAR gamma (cdk5-mediated phosphorylation) (Mus musculus, UniProt P37238); assay: TNF-α-induced phosphorylation of PPAR gamma in 3T3-L1 adipocytes expressing wild type PPAR gamma; format: cell-based; conditions: combined with rosiglitazone, FIG. 5A
T1 construct: expressed in transfected cells; host or cells: 3T3-L1 adipocytes
T1 sequence (P37238 1-505): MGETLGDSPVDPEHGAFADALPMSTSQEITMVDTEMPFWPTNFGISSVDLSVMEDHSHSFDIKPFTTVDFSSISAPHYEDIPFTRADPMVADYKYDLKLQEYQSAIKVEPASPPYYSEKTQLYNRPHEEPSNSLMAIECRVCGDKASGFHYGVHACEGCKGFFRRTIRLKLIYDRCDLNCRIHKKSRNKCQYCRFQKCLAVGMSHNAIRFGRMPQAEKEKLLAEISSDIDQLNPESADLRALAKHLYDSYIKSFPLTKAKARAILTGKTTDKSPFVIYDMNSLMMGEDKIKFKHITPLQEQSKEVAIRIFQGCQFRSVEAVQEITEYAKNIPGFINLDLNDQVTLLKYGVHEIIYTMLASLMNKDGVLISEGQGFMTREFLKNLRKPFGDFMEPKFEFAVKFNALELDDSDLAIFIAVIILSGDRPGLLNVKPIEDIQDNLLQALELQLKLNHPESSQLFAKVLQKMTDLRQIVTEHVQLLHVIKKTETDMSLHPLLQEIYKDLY
Procedure: HEK-293 cells expressing CDK5 or PPAR gamma were collected after transfection. Total cell lysates were incubated with FLAG M2 agarose (Sigma) at 4° C. Immunoprecipitates or total cell lysates were analyzed with anti-CDK substrate, FLAG or HA (Roche) antibodies. Differentiated 3T3-L1 adipocytes were treated with TNF-α (50 ng/ml), IL-6 (50 ng/ml), IL-10 (50 ng/ml) or FFAs (400 μM palmitic acid and oleic acid mixtures) for the indicated times, and cell lysates were analyzed with phospho-specific or PPAR gamma antibodies. 3T3-L1 adipocytes were pre-treated with various PPAR gamma ligands, and incubated with TNF-α. For tissue lysates, WAT from mice was homogenized in RIPA buffer (50 mM Tris pH7.5, 150 mM NaCl, 1% NP-40, 0.5% sodium deoxycholate, 0.1% SDS with protease and phosphatase inhibitors). […] Total tissue lysates were analyzed with anti-PPAR gamma, phospho-CDK5 (Y15), CDK5 and p35 antibodies (Santa Cruz).

[2] = biological target: T2, cdk5-mediated phosphorylation of PPAR gamma (serine 273) (Mus musculus, UniProt P37238); assay: In vitro CDK5 kinase assay with cdk5/p35 and PPAR gamma as substrate; format: biochemical, murine; conditions: FIG. 5B, FIG. 6
T2 construct: FLAG (N); made in house
T2 sequence (P37238 1-505): T1 sequence (P37238 1-505)
Procedure: Kinase assays were performed using an active cdk5/p35 protein and recombinant PPAR gamma protein as a substrate in kinase buffer in the presence of ATP. The reaction was stopped by adding sample buffer. Samples were then subjected to SDS-PAGE, and detected by CDK substrate antibody. In particular, active cdk5/p35, cdk1/cdc2, cdk2/cyclin A, cdk2/cyclin E or cdk4/cyclin D1 kinases were purchased from Millipore or Cell Signaling Technology. In vitro CDK kinase assay was performed according to the manufacturer's instructions (Cell Signaling Technology). […] Positive control for assay, purified histone H1 (Millipore) or Rb (Cell Signaling Technology) were used. Several PPAR gamma ligands were pre-incubated with substrates for 30 min, and the assay was performed. Phosphorylation of substrates after SDS-PAGE was analyzed with anti-CDK substrate antibody (Cell Signaling Technology).

adipogenesis = conditions: cited from earlier work
[3] = biological target: T3, PPAR gamma (PPAR transcriptional response element) (Mus musculus, UniProt P37238); assay: Reporter gene assay, PPAR-derived reporter gene in HEK-293 cells; format: cell-based
T3 construct: expressed in transfected cells; host or cells: HEK-293
T3 sequence (P37238 1-505): T1 sequence (P37238 1-505)
T3 sequence (P19793 1-462 partner): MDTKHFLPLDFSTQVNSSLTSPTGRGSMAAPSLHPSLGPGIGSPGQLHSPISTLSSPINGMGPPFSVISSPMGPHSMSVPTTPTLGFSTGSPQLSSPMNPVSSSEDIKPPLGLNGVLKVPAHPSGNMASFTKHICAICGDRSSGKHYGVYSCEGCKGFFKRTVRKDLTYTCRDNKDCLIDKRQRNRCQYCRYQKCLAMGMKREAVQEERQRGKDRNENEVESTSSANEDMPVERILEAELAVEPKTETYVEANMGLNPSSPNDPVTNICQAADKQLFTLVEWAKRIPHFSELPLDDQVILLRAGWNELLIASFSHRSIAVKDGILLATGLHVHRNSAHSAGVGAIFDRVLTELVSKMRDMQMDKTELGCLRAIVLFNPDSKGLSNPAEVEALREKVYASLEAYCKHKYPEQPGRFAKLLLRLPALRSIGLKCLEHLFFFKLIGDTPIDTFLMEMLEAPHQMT
Procedure: In some examples, HEK-293 cells were seeded in 12-well plates at 1.5×10^5 cells/well. HEK-293 cells were transfected with pDR-1 (3×, based on the UCP1 PPAR gamma recognition site)-luciferase reporter plasmid, PPAR gamma, RXRa and pRL-renillin using Lipofectamine 2000 (Invitrogen). […] The cells were harvested and reporter gene assays were carried out using the Dual-Luciferase kit (Promega). Luciferase activity was normalized to renillia activity.

mice [4] = conditions: Acton et al. 2005; cited from earlier work
high-fat fed mice = assay: Glucose tolerance, fasting insulin and body weight in high-fat fed mice; conditions: 10 mg/kg for 7 days
Procedure: 4 to 5-week old male C57BL/6J mice were obtained from the Jackson Laboratory. Mice were fed a regular diet (10% kcal fat, D12450B, Research Diets Inc.) or a high fat diet (60% kcal fat, D12492, Research Diets Inc.) as indicated time periods. […] Glucose was measured in tail vain blood at intervals after glucose injection using a Truetrack glucometer. Serum insulin concentrations were determined by ELISA (Crystal Chem).

mice [5] = assay: Whole body oxygen consumption (CLAMS) in treated mice; format: in vivo; conditions: 10 mg/kg for 10 days
[6] = system: PPAR gamma-null fibroblasts expressing WT PPAR gamma; assay: Microarray analysis of differentiated PPAR gamma-null fibroblasts expressing wild type PPAR gamma; format: cell-based, mouse; conditions: 1 μM, 24 hours; FIG. 5F
Text: To create refined gene sets regulated by cdk5 phosphorylation of PPAR gamma, p-value as well as fold-change of gene expression in WT versus S273A mutant cells was first calculated, and—log p-value versus log2 fold-change was plotted.

[7] = biological target: T4, PPAR gamma (TNF-α-mediated phosphorylation) (Mus musculus, UniProt P37238); assay: TNF-α-induced phosphorylation of PPAR gamma in HEK-293 cells; format: cell-based; conditions: 30 nM; FIG. 5E
T4 construct: expressed in transfected cells; host or cells: HEK-293
T4 sequence (P37238 1-505): T1 sequence (P37238 1-505)
Procedure: HEK-293 cells expressing CDK5 or PPAR gamma were collected after transfection. Total cell lysates were incubated with FLAG M2 agarose (Sigma) at 4° C. Immunoprecipitates or total cell lysates were analyzed with anti-CDK substrate, FLAG or HA (Roche) antibodies. Differentiated 3T3-L1 adipocytes were treated with TNF-α (50 ng/ml), IL-6 (50 ng/ml), IL-10 (50 ng/ml) or FFAs (400 μM palmitic acid and oleic acid mixtures) for the indicated times, and cell lysates were analyzed with phospho-specific or PPAR gamma antibodies. 3T3-L1 adipocytes were pre-treated with various PPAR gamma ligands, and incubated with TNF-α. […] Phosphorylation of PPAR gamma on Ser112 or Ser273 was detected by phospho-specific antibodies (Ser112, Millipore, MAB3632).

[8] = biological target: T5, cdk5 (Rb protein as substrate) (Homo sapiens, UniProt Q00535); assay: In vitro CDK5 kinase assay with Rb as substrate; format: biochemical; conditions: selectivity control
T5 construct: purchased Millipore or Cell Signaling Technology
Procedure: Kinase assays were performed using an active cdk5/p35 protein and recombinant PPAR gamma protein as a substrate in kinase buffer in the presence of ATP. The reaction was stopped by adding sample buffer. Samples were then subjected to SDS-PAGE, and detected by CDK substrate antibody. In particular, active cdk5/p35, cdk1/cdc2, cdk2/cyclin A, cdk2/cyclin E or cdk4/cyclin D1 kinases were purchased from Millipore or Cell Signaling Technology. In vitro CDK kinase assay was performed according to the manufacturer's instructions (Cell Signaling Technology). Briefly, 1 μg of immuno-purified WT or S273A mutant of PPAR gamma were incubated with active CDK kinase in kinase assay buffer (25 mM Tris-HCl pH 7.5, 5 mM beta-glycerophosphate, 2 mM dithiothreitol (DTT), 0.1 mM Na3VO4, 10 mM MgCl2) containing 20 μM ATP for 15 min at 30° C. Positive control for assay, purified histone H1 (Millipore) or Rb (Cell Signaling Technology) were used. Several PPAR gamma ligands were pre-incubated with substrates for 30 min, and the assay was performed. Phosphorylation of substrates after SDS-PAGE was analyzed with anti-CDK substrate antibody (Cell Signaling Technology).

[9] = biological target: T6, cdk5-mediated phosphorylation of PPAR gamma in adipose tissue (Mus musculus, UniProt P37238); assay: Phosphorylation of PPAR gamma in adipose tissue (WAT) of treated high-fat fed mice; format: in vivo; conditions: 10 mg/kg for 7 days, FIG. 9D
T6 construct: For tissue lysates, WAT from mice was homogenized in RIPA buffer; from tissue; host or cells: white adipose tissue of C57BL/6J mice on high fat diet
T6 sequence (P37238 1-505): T1 sequence (P37238 1-505)
Procedure: For tissue lysates, WAT from mice was homogenized in RIPA buffer (50 mM Tris pH7.5, 150 mM NaCl, 1% NP-40, 0.5% sodium deoxycholate, 0.1% SDS with protease and phosphatase inhibitors). […] Total tissue lysates were analyzed with anti-PPAR gamma, phospho-CDK5 (Y15), CDK5 and p35 antibodies (Santa Cruz). Phosphorylation of PPAR gamma on Ser112 or Ser273 was detected by phospho-specific antibodies (Ser112, Millipore, MAB3632).
4 to 5-week old male C57BL/6J mice were obtained from the Jackson Laboratory.

T5 sequence (Q00535 whole entry, species assumed): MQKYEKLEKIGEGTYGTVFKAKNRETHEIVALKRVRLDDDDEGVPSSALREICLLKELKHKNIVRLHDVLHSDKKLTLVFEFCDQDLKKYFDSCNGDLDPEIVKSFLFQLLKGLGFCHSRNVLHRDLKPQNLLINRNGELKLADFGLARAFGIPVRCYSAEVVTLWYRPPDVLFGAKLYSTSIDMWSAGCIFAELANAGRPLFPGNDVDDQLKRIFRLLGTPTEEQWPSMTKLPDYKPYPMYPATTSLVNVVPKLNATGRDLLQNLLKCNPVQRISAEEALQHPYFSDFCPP
T5 sequence (Q15078 whole entry partner, species assumed): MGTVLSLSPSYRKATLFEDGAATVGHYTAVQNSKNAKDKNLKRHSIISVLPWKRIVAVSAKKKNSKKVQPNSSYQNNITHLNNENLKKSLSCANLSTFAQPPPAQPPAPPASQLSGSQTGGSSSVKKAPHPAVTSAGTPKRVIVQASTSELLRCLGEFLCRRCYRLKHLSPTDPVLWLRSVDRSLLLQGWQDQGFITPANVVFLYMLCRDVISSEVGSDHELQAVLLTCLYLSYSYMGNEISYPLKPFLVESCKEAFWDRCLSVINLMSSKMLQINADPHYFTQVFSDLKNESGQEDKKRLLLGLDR

Structure (SMILES): O=C(Nc1ccccc1)c1cc([N+](=O)[O-])ccc1Cl [GW 9662]
- effect of antagonist on rosiglitazone inhibition of PPAR gamma phosphorylation [1]: completely blocked this effect of rosiglitazone

Structure (SMILES): COc1ccc(C(=O)n2c(C)c(Cc3cccc(O[C@@H](C)C(=O)O)c3)c3cc(OC(F)(F)F)ccc32)cc1 [MRL24]
- blocking of cdk5-mediated phosphorylation of PPAR gamma [2]: very effective at blocking the cdk5-mediated phosphorylation of PPAR gamma
- ability to promote adipogenesis (adipogenesis): virtually no ability to promote adipogenesis
- agonist activity on PPAR gamma at 30 nM ([3]; 30 nM, same cells as phosphorylation test): essentially undetectable agonist activity
- agonist activity on a PPAR transcriptional response element ([3]; compared to rosiglitazone): very weak agonist activity; also recorded: only a small fraction of the agonist activity of rosiglitazone
- anti-diabetic activity (mice [4]): excellent anti-diabetic activity in mice
- fasting insulin levels (high-fat fed mice): reduced fasting insulin levels
- glucose tolerance (high-fat fed mice): dramatically improved glucose tolerance
- whole body oxygen consumption (mice [5]): selectively increase whole body oxygen consumption in vivo
- expression of gene cluster "c" (genes increased by the cdk5 site mutation) [6]: corresponded remarkably well to the gene set induced by the mutation in the cdk5 site of PPAR gamma
- expression of gene group "a" (genes activated by cdk5 phosphorylation of PPAR gamma) [6]: suppressed
- block of TNF-α-mediated phosphorylation of PPAR gamma [7]: blocked the TNF-α-mediated phosphorylation of PPAR gamma essentially completely
- inhibition of cdk5 phosphorylation of Rb [8]: retained full ability to phosphorylate Rb
- cdk5-mediated phosphorylation of PPAR gamma in adipose tissue [9]: reduced the cdk5-mediated phosphorylation of PPAR gamma in the adipose tissue of every mouse

Structure (SMILES): CN(CCOc1ccc(CC2SC(=O)NC2=O)cc1)c1ccccn1 (stereo not drawn) [rosiglitazone]
- body weight (high-fat fed mice): without inducing changes in body weight
